Tests used:
Test in all cases: relative viability (nuclei count vs DMSO), 5 days (fraction); higher = more cells survive
ABC-1 = test system: ABC-1
In short: (§1)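 One day after seeding in 1536-well plates, lung cancer cell lines were dosed by pin tool. Dosing was either single-drug or a fixed anchor-drug dose plus five library-drug doses (not always all listed) in √10 steps. After 5 days, nuclei were stained in one fix-and-stain step and counted on 4× images, and relative viability is the nuclei count of treated wells over that of vehicle wells, given as the median of duplicate plates.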

NCI-H2228 = test system: NCI-H2228
In short: as §1

NCI-H2009 = test system: NCI-H2009
In short: as §1

NCI-H1623 = test system: NCI-H1623
In short: as §1

NCI-H1648 = test system: NCI-H1648
In short: as §1

EMC-BAC-2 = test system: EMC-BAC-2
In short: as §1

CCNC(=O)c1noc(-c2cc(C(C)C)c(O)cc2O)c1-c1ccc(CN2CCOCC2)cc1 [Luminespib] + COc1cccc2cc(-c3nc([C@H]4CC[C@H](C(=O)O)CC4)n4ncnc(N)c34)[nH]c12 [OSI-027] (partner 0.5 µM)
relative viability (ABC-1; first compound 0.002 µM): 0.532 | relative viability (ABC-1; first compound 0.006325 µM): 0.476 | relative viability (ABC-1; first compound 0.02 µM): 0.312 | relative viability (ABC-1; first compound 0.06325 µM): 0.195 | relative viability (ABC-1; first compound 0.2 µM): 0.186 | relative viability (NCI-H2228; first compound 0.002 µM): 0.576 | relative viability (NCI-H2228; first compound 0.006325 µM): 0.459 | relative viability (NCI-H2228; first compound 0.02 µM): 0.116 | relative viability (NCI-H2228; first compound 0.06325 µM): 0.109 | relative viability (NCI-H2228; first compound 0.2 µM): 0.0698 | relative viability (NCI-H2009; first compound 0.002 µM): 0.773 | relative viability (NCI-H2009; first compound 0.006325 µM): 0.534 | relative viability (NCI-H2009; first compound 0.02 µM): 0.518 | relative viability (NCI-H2009; first compound 0.06325 µM): 0.0609 | relative viability (NCI-H2009; first compound 0.2 µM): 0.0769 | relative viability (NCI-H1623; first compound 0.002 µM): 0.449 | relative viability (NCI-H1623; first compound 0.006325 µM): 0.439 | relative viability (NCI-H1623; first compound 0.02 µM): 0.415 | relative viability (NCI-H1623; first compound 0.06325 µM): 0.343 | relative viability (NCI-H1623; first compound 0.2 µM): 0.293 | relative viability (NCI-H1648; first compound 0.006325 µM): 0.283 | relative viability (NCI-H1648; first compound 0.02 µM): 0.289 | relative viability (NCI-H1648; first compound 0.06325 µM): 0.366 | relative viability (NCI-H1648; first compound 0.2 µM): 0.335 | relative viability (EMC-BAC-2; first compound 0.002 µM): 0.426 | relative viability (EMC-BAC-2; first compound 0.006325 µM): 0.354 | relative viability (EMC-BAC-2; first compound 0.02 µM): 0.415 | relative viability (EMC-BAC-2; first compound 0.06325 µM): 0.348 | relative viability (EMC-BAC-2; first compound 0.2 µM): 0.184

CCNC(=O)c1noc(-c2cc(C(C)C)c(O)cc2O)c1-c1ccc(CN2CCOCC2)cc1 [Luminespib] + Cc1cc(Nc2cc(N3CCN(C)CC3)nc(Sc3ccc(NC(=O)C4CC4)cc3)n2)n[nH]1 [Tozasertib] (partner 0.1 µM)
relative viability (ABC-1; first compound 0.002 µM): 0.196 | relative viability (ABC-1; first compound 0.006325 µM): 0.21 | relative viability (ABC-1; first compound 0.02 µM): 0.139 | relative viability (ABC-1; first compound 0.06325 µM): 0.173 | relative viability (ABC-1; first compound 0.2 µM): 0.14 | relative viability (NCI-H2228; first compound 0.002 µM): 0.353 | relative viability (NCI-H2228; first compound 0.006325 µM): 0.274 | relative viability (NCI-H2228; first compound 0.02 µM): 0.139 | relative viability (NCI-H2228; first compound 0.06325 µM): 0.101 | relative viability (NCI-H2228; first compound 0.2 µM): 0.136 | relative viability (NCI-H2009; first compound 0.002 µM): 0.766 | relative viability (NCI-H2009; first compound 0.006325 µM): 0.746 | relative viability (NCI-H2009; first compound 0.02 µM): 0.798 | relative viability (NCI-H2009; first compound 0.06325 µM): 0.28 | relative viability (NCI-H2009; first compound 0.2 µM): 0.114 | relative viability (NCI-H1623; first compound 0.002 µM): 0.398 | relative viability (NCI-H1623; first compound 0.006325 µM): 0.415 | relative viability (NCI-H1623; first compound 0.02 µM): 0.386 | relative viability (NCI-H1623; first compound 0.06325 µM): 0.306 | relative viability (NCI-H1623; first compound 0.2 µM): 0.297 | relative viability (NCI-H1648; first compound 0.006325 µM): 0.373 | relative viability (NCI-H1648; first compound 0.02 µM): 0.362 | relative viability (NCI-H1648; first compound 0.06325 µM): 0.578 | relative viability (NCI-H1648; first compound 0.2 µM): 0.262 | relative viability (EMC-BAC-2; first compound 0.002 µM): 0.345 | relative viability (EMC-BAC-2; first compound 0.006325 µM): 0.261 | relative viability (EMC-BAC-2; first compound 0.02 µM): 0.28 | relative viability (EMC-BAC-2; first compound 0.06325 µM): 0.342 | relative viability (EMC-BAC-2; first compound 0.2 µM): 0.299

Cc1csc(=NC2CCCCC2)n1/N=C/c1ccc(O)c(O)c1O [MIM1] + COc1cccc2cc(-c3nc([C@H]4CC[C@H](C(=O)O)CC4)n4ncnc(N)c34)[nH]c12 [OSI-027] (partner 0.5 µM)
relative viability (ABC-1; first compound 0.2 µM): 0.481 | relative viability (ABC-1; first compound 0.6325 µM): 0.46 | relative viability (ABC-1; first compound 2 µM): 0.388 | relative viability (ABC-1; first compound 6.325 µM): 0.236 | relative viability (ABC-1; first compound 20 µM): 0.298 | relative viability (NCI-H2228; first compound 0.2 µM): 0.773 | relative viability (NCI-H2228; first compound 0.6325 µM): 0.502 | relative viability (NCI-H2228; first compound 2 µM): 0.653 | relative viability (NCI-H2228; first compound 6.325 µM): 0.217 | relative viability (NCI-H2228; first compound 20 µM): 0.137 | relative viability (NCI-H2009; first compound 0.2 µM): 0.697 | relative viability (NCI-H2009; first compound 0.6325 µM): 0.685 | relative viability (NCI-H2009; first compound 2 µM): 0.684 | relative viability (NCI-H2009; first compound 6.325 µM): 0.424 | relative viability (NCI-H2009; first compound 20 µM): 0.142 | relative viability (NCI-H1623; first compound 0.2 µM): 0.435 | relative viability (NCI-H1623; first compound 0.6325 µM): 0.416 | relative viability (NCI-H1623; first compound 2 µM): 0.412 | relative viability (NCI-H1623; first compound 6.325 µM): 0.36 | relative viability (NCI-H1623; first compound 20 µM): 0.383 | relative viability (NCI-H1648; first compound 0.2 µM): 0.246 | relative viability (NCI-H1648; first compound 0.6325 µM): 0.272 | relative viability (NCI-H1648; first compound 2 µM): 0.28 | relative viability (NCI-H1648; first compound 6.325 µM): 0.275 | relative viability (NCI-H1648; first compound 20 µM): 0.226 | relative viability (EMC-BAC-2; first compound 0.2 µM): 0.422 | relative viability (EMC-BAC-2; first compound 0.6325 µM): 0.36 | relative viability (EMC-BAC-2; first compound 2 µM): 0.357 | relative viability (EMC-BAC-2; first compound 6.325 µM): 0.344 | relative viability (EMC-BAC-2; first compound 20 µM): 0.253

Cc1csc(=NC2CCCCC2)n1/N=C/c1ccc(O)c(O)c1O [MIM1] + Cc1cc(Nc2cc(N3CCN(C)CC3)nc(Sc3ccc(NC(=O)C4CC4)cc3)n2)n[nH]1 [Tozasertib] (partner 0.1 µM)
relative viability (ABC-1; first compound 0.2 µM): 0.228 | relative viability (ABC-1; first compound 0.6325 µM): 0.182 | relative viability (ABC-1; first compound 2 µM): 0.21 | relative viability (ABC-1; first compound 6.325 µM): 0.206 | relative viability (ABC-1; first compound 20 µM): 0.194 | relative viability (NCI-H2228; first compound 0.2 µM): 0.257 | relative viability (NCI-H2228; first compound 0.6325 µM): 0.284 | relative viability (NCI-H2228; first compound 2 µM): 0.234 | relative viability (NCI-H2228; first compound 6.325 µM): 0.203 | relative viability (NCI-H2228; first compound 20 µM): 0.123 | relative viability (NCI-H2009; first compound 0.2 µM): 0.754 | relative viability (NCI-H2009; first compound 0.6325 µM): 0.701 | relative viability (NCI-H2009; first compound 2 µM): 0.859 | relative viability (NCI-H2009; first compound 6.325 µM): 0.622 | relative viability (NCI-H2009; first compound 20 µM): 0.725 | relative viability (NCI-H1623; first compound 0.2 µM): 0.454 | relative viability (NCI-H1623; first compound 0.6325 µM): 0.402 | relative viability (NCI-H1623; first compound 2 µM): 0.43 | relative viability (NCI-H1623; first compound 6.325 µM): 0.339 | relative viability (NCI-H1623; first compound 20 µM): 0.352 | relative viability (NCI-H1648; first compound 0.2 µM): 0.371 | relative viability (NCI-H1648; first compound 0.6325 µM): 0.369 | relative viability (NCI-H1648; first compound 2 µM): 0.374 | relative viability (NCI-H1648; first compound 6.325 µM): 0.326 | relative viability (NCI-H1648; first compound 20 µM): 0.172 | relative viability (EMC-BAC-2; first compound 0.2 µM): 0.219 | relative viability (EMC-BAC-2; first compound 0.6325 µM): 0.3 | relative viability (EMC-BAC-2; first compound 2 µM): 0.273 | relative viability (EMC-BAC-2; first compound 6.325 µM): 0.272 | relative viability (EMC-BAC-2; first compound 20 µM): 0.202
